Test results from US20260124194A1 (priority 2022, published 2026).
Where “and” joins values, the source holds several entries; their conditions need not be identical. Equal entries are not always repeated. Marks after values point to notes of the source that are not given here.

Assays:
[1] = system: patients with chronic intestinal pseudo-obstruction; conditions: prucalopride 2 mg, 12-week periods, cited from earlier work
[2] = system: subjects with idiopathic Chronic Intestinal Pseudo-Obstruction (CIPO)
Protocol: Safety was assessed at each visit measuring and evaluating changes from the baseline of the following parameters: • Vital signs (including blood pressure, pulse, temperature). • Physical examination also including height and weight. • Routine laboratory parameters (hematocrit, hemoglobin, red blood cell count, white blood cell count with differential count and platelet count for hematology; glycaemia, total cholesterol, triglycerides, serum creatinine, urea or blood urea nitrogen [BUN], sodium, potassium, chloride, AST, ALT, Gamma-GT, alkaline phosphatase, total and fractioned bilirubin (direct and indirect), erythrocyte sedimentation rate, PT (or INR), aPTT for biochemistry; specific gravity, pH, protein, glucose, ketones, hemoglobin, nitrite, bilirubin, urobilinogen and microscopic examination for urinalysis). • Triplicate ECG • Adverse events (AEs). • Withdrawal from study due to AEs.
Adverse events starting on or after the first intake of investigational product were considered treatment-emergent AEs (TEAEs). Verbatim terms for AEs were coded using the most current version of Medical Dictionary for Regulatory Activities (MedDRA) coding. […]

[3] = system: Prp-SCA7-92Q transgenic mice; assay: Morphometric gut evaluation (HE histological score) in Prp-SCA7-92Q transgenic mice; assay type: in vivo; conditions: Prp-SCA7-92Q mice
Protocol: After mice were sacrificed by CO2 inhalation, the small intestine and colon tissue were cut, fixed for 48 hours with 10% neutral buffered formalin. The paraffin sample was prepared by dehydration with a series of gradient alcohol solutions according to standard methods known in the field. Tissues were cut into 4 μm sections by rotary microtome and baked for 2 hours at 60° C. After (HE) hematoxylin-eosin (HE) images were obtained from each animal at 20× magnification for histological analyses by fully automatic digital pathology slide-system (KF BIO, KF-PRO-005, China) using K-viewer Imaging software (KF BiO, V1, China).
The presence of inflammation and ulcers was quantified using indicators (i.e. ulcers=% area with intestinal mucosal damage, inflammation=necrosis, bleeding) to which a score from 0 to 3 was associated. Inflammation and ulcers scoring were awarded after section evaluation and analysis.

Prp-SCA7-92Q mice = assay: Body weight and tolerability in Prp-SCA7-92Q mice; assay type: in vivo; conditions: 1 and 3 mg/kg, 5 weeks of treatment
From the text: A normal control (NC) group of untreated wild-type mice was also examined. No significant differences were noticed between groups (FIG. 13).

[4] = system: subjects with idiopathic Chronic Intestinal Pseudo-Obstruction (CIPO); conditions: in vivo
From the text: Visits where assessed at the beginning of the screening period (Visit 1), at the beginning and at the end of each period of treatment (Visit 2 to Visit 9) and at the end of the follow-up period (Visit 10).
PLA=matching placebo once daily for 4 weeks.
Gastrointestinal symptom severity (abdominal pain, bloating, nausea and vomiting) and bowel habit (weekly recall) were registered on Day −1 and weekly after randomization, during both treatment and washout periods, as appropriate according to the Schedule of Assessments using an e-diary until end of follow up period.
Subjects were instructed to take three capsules of medication orally, once daily at approximately the same time each morning, on an empty stomach, with water.
The Primary efficacy endpoints was to evaluate the change in weekly global gastrointestinal symptoms average index score (WGGSAIS) from start to the end of each treatment period.
The WGGSAIS was obtained by averaging the scores for each of the 4 symptoms assessed weekly: abdominal pain, bloating, nausea and vomiting, with lower scores representing better health. If at least 2 symptoms were assessed, the average score was calculated, otherwise, it was considered missing.
Change between the end of treatment and pre-treatment WGGSAIS value≤−1 point was computed and considered a “success” while changes >−1 were considered a “failure”. The proportion of subjects with a 1-point improvement in WGGSAIS is summarized by treatment sequence, period and timepoint (weekly evaluation by e Diary.
Considering the evaluable pairs, the proportions of pairs of observations with 1-point improvement in WGGSAIS is summarized by treatment and timepoint. […]
Considering the evaluable pairs, the number of pseudo-obstruction episodes occurring within each treatment period and number of pseudo-obstruction episodes occurring within wash-out/follow up was considered as categorical variables classified as 0, 1, 2 and >2 and are summarized by treatment.
The same descriptive analyses described above are repeated focusing on change from the end of each treatment period to the end of each week of washout period or follow-up period instead of the change between post-treatment and pre-treatment.

COCCCN1CCC(NC(=O)c2cc(Cl)c(N)c3c2OCC3)CC1 [prucalopride]
stool frequency and consistency [1]: did not affect | patients with significantly improved bloating ([1]; four completers): four | patients with significantly improved nausea ([1]; four completers): two | patients with significantly improved pain ([1]; four completers): three of four patients | patients with significantly improved vomiting ([1]; four completers): one

CC(C)n1c(=O)c(C(=O)N[C@H]2C[C@H]3CC[C@@H](C2)N3C[C@@H](O)CN(C)S(C)(=O)=O)cc2ccccc21 [velusetrag, 1-isopropyl-2-oxo-1,2-dihydroquinoline-3-carboxylic acid {(1S,3R,5R)-8-[(R)-2-hydroxy-3-(methanesulfonyl-methyl-amino)propyl]-8-azabicyclo[3.2.1]oct-3-yl}amide]
total TEAEs classified as velusetrag emergent ([2]; Safety Set (placebo emergent 38)): 29 | subjects with TEAEs classified as velusetrag emergent, % ([2]; Safety Set, 17 subjects (placebo emergent 58.82%)): 41.18% | Inflammation (count of necrosis) score, DSI ([3]; 1 mg/kg po once daily 5 weeks): 1.6 ± 0.1 | Inflammation (count of necrosis) score, Proximal Colon ([3]; 1 mg/kg po once daily 5 weeks): 1.5 ± 0.1 | Total score, DSI ([3]; 1 mg/kg po once daily 5 weeks): 2.4 ± 0.1 | Total score, Proximal Colon ([3]; 1 mg/kg po once daily 5 weeks): 2.4 ± 0.1 | Ulcers (mucosal damage) score, DSI ([3]; 1 mg/kg po once daily 5 weeks): 0.8 ± 0.1^∘ | Ulcers (mucosal damage) score, Proximal Colon ([3]; 1 mg/kg po once daily 5 weeks): 0.9 ± 0.05 | Inflammation (count of necrosis) score, DSI ([3]; 3 mg/kg po once daily 5 weeks): 1.2 ± 0.1*^∘∘∘ | Inflammation (count of necrosis) score, Proximal Colon ([3]; 3 mg/kg po once daily 5 weeks): 1.1 ± 0.1*^∘∘∘ | Total score, DSI ([3]; 3 mg/kg po once daily 5 weeks): 1.8 ± 0.1**^∘ | Total score, Proximal Colon ([3]; 3 mg/kg po once daily 5 weeks): 1.5 ± 0.1*^∘∘∘ | Ulcers (mucosal damage) score, DSI ([3]; 3 mg/kg po once daily 5 weeks): 0.6 ± 0.1^∘ | Ulcers (mucosal damage) score, Proximal Colon ([3]; 3 mg/kg po once daily 5 weeks): 0.4 ± 0.01^∘∘ | tolerability: body weight and lethality throughout treatment (Prp-SCA7-92Q mice): no reduction in body weight and lethality was observed | WGGSAIS total score, mean change from end of treatment at the end of wash-out [4]: 0.54±0.736 | WGGSAIS, mean [4]: 1.707 and 1.608 and 1.367 and 1.458 | WGGSAIS, mean change from pre-treatment to end of treatment [4]: −0.529±0.7956 | WGGSAIS, mean difference between treatments (velusetrag minus placebo) [4]: −0.342+0.9343
